# Test system: RPE cell
# Assay: Proteolytic activity of cultured RPE cell extracts on AGE-BSA (electrophoresis, ImageQuant)
# Assay type: cell-based, bovine
# Settings: 50 ng/ml HGF
# Protocol: 1×10^6 RPE cells are seeded into the 96-well microplate, containing 10% FCS in DMEM, at 37° C., supplied with 5% CO2. After incubation of 48 hrs, five sets of experiment are treated with the Dendrobii Caulis crude extract, in which each set of experiment includes two microplates for different treating time. After treating for 36 or 48 hrs, 0.01% EDTA is added into the microplate for harvesting the cells, and then the cells are suspended in the […]. Then, the cell solution is centrifuged for 5 min at 1200 rpm, and the cells are suspended back into 10 ml DEME twice. Then, the cell solution is centrifuged again, and is suspended back again with the 0.7 ml Homogenization buffer (50 mM sodium acetate buffer, pH4.5, 1 mM DTT, 0.15M NaCl, 3 mM NaN3) containing 0.1% TritonX-100. Then, the cell solution is vibrated by a sonicator for 15 sec, four cycles, for breaking the cell completely. […] The protein concentration is detected. […]
# 1×10^6 RPE cells are seeded into the 96-well microplate, containing 10% FCS in DMEM, at 37° C., supplied with 5% CO2. […] After treating for 36 or 48 hrs, 0.01% EDTA is added into the microplate for harvesting the cells, and then the cells are suspended in the DMEM and the cell number is counted. […]
substance,measurement,setting,value
"HGF: hepatocyte growth factor, used at 50 ng/ml as comparison treatment",proteolytic activity of cultured RPE cell vs control set,"48 hours, FIG. 32",a little bit greater
same,amount of AGE-BSA,FIG. 33,obviously decreased

# — patent US8067039B2, “Extract of plant Dendrobii caulis and preparing process thereof” (National Yang-Ming University, priority 2003, dated 2011)
